From patent publication US20080269170A1, “Novel 2,4-Dianilinopyrimidine Derivatives, the Preparation Thereof, Their Use as Medicaments, Pharmaceutical Compositions and, in Particular, as IKK Inhibitors” (sanofi-aventis, priority 2005, published 2008)
Counter-ions that a name gives are not always drawn.

`CN1C2CCC1CC(N(C)S(=O)(=O)c1ccc(Nc3nccc(Nc4ccc(F)cc4)n3)cc1)C2` (stereo not shown) showed a melting point of 184.5 °C. With `CCOP(=O)(CCN1CCC(NS(=O)(=O)c2ccc(Nc3nccc(Nc4ccc(F)c(F)c4)n3)cc2)CC1)OCC` the melting point was 133 °C. Compound `CCOP(=O)(CN1CCC(NS(=O)(=O)c2ccc(Nc3nccc(Nc4ccc(F)c(F)c4)n3)cc2)CC1)OCC` has a melting point of 137.8 °C. `CCOP(=O)(CCN1CCC(N(C)S(=O)(=O)c2ccc(Nc3nccc(Nc4ccc(F)c(F)c4)n3)cc2)CC1)OCC` showed a melting point of 93 to 96 °C. For `CCOP(=O)(CCN1CCC(N(CCN)S(=O)(=O)c2ccc(Nc3nccc(Nc4ccc(F)c(F)c4)n3)cc2)CC1)OCC`, the melting point was 88 to 90 °C. Work on `CCOP(=O)(CCN1CCC(N(CCCN)S(=O)(=O)c2ccc(Nc3nccc(Nc4ccc(F)c(F)c4)n3)cc2)CC1)OCC` yielded a melting point of 94 to 96 °C. In the case of `CCOP(=O)(CCN1CCC(N(C)S(=O)(=O)c2ccc(Nc3nccc(Nc4ccc(F)cc4)n3)cc2)CC1)OCC`, the melting point was 95 to 100 °C. In the case of `CCOP(=O)(CCN1CCC(N(CCN)S(=O)(=O)c2ccc(Nc3nccc(Nc4ccc(F)cc4)n3)cc2)CC1)OCC`, the melting point was 90 °C. In the case of `CCOP(=O)(CCCN1CCC(NS(=O)(=O)c2ccc(Nc3nccc(Nc4ccc(F)cc4)n3)cc2)CC1)OCC`, the melting point was 110 °C. In the case of `CCOP(=O)(CCN1CCC(N(CCCN)S(=O)(=O)c2ccc(Nc3nccc(Nc4ccc(F)cc4)n3)cc2)CC1)OCC`, the melting point was 125 to 130 °C. Work on `CCOP(=O)(CCN1CCC(N(CCN2CCCC2)S(=O)(=O)c2ccc(Nc3nccc(Nc4ccc(F)cc4)n3)cc2)CC1)OCC` yielded a melting point of 85 °C. With `CC(C)(O)CNCCN(C1CCN(Cc2ccccc2)CC1)S(=O)(=O)c1ccc(Nc2nccc(Nc3ccc(F)cc3)n2)cc1` (as salt: hydrochloride) the melting point was 200 °C. Compound `CN(C1CCNCC1)S(=O)(=O)c1ccc(Nc2nccc(Nc3ccc(F)c(F)c3)n2)cc1` (as salt: hydrochloride) has a melting point of 275 °C. In the case of `Cc1cc(Nc2ccnc(Nc3ccc(S(=O)(=O)N(C)C4CCNCC4)cc3)n2)ccc1F` (as salt: hydrochloride), the melting point was 215 to 220 °C. `CN1CCC(N(CCN)S(=O)(=O)c2ccc(Nc3nccc(Nc4ccc(F)cc4)n3)cc2)CC1` (as salt: hydrochloride) showed a melting point of 225 °C. Work on `CN(C)CCN(C1CCNCC1)S(=O)(=O)c1ccc(Nc2nccc(Nc3ccc(F)cc3)n2)cc1` (as salt: hydrochloride) yielded a melting point of 220 °C. `O=S(=O)(c1ccc(Nc2nccc(Nc3ccc(F)cc3)n2)cc1)N(CCN1CCCC1)C1CCNCC1` (as salt: hydrochloride) gave a melting point of 200 °C. `CCOP(=O)(CCN1CCC(N(CC2CCCN2)S(=O)(=O)c2ccc(Nc3nccc(Nc4ccc(F)cc4)n3)cc2)CC1)OCC` (stereo not shown) (as salt: hydrochloride) showed a melting point of 185 °C. In the case of `NCCN(C1CCN(Cc2ccccc2)CC1)S(=O)(=O)c1ccc(Nc2nccc(Nc3ccc(F)cc3)n2)cc1` (as salt: hydrochloride), the melting point was 230 to 232 °C. In the case of `NCCN(C1CNC1)S(=O)(=O)c1ccc(Nc2nccc(Nc3ccc(F)cc3)n2)cc1` (as salt: hydrochloride), the melting point was over 220 °C. `CCNCCN(C1CCNCC1)S(=O)(=O)c1ccc(Nc2nccc(Nc3ccc(F)cc3)n2)cc1` (as salt: hydrochloride) gave a melting point of 250 °C. Work on `NCCN(C1CCOCC1)S(=O)(=O)c1ccc(Nc2nccc(Nc3ccc(F)cc3)n2)cc1` (as salt: hydrochloride) yielded a melting point of 200 °C. `Cc1cc(Nc2ccnc(Nc3ccc(S(=O)(=O)N(CCN)C4CNC4)cc3)n2)ccc1F` (as salt: hydrochloride) gave a melting point of 205 °C. Compound `Cc1cc(Nc2ccnc(Nc3ccc(S(=O)(=O)N(CCN)C4CCN(CC(F)(F)F)CC4)cc3)n2)ccc1F` (as salt: hydrochloride) has a melting point of 225 °C. In the case of `CN(C1CCNCC1)S(=O)(=O)c1ccc(Nc2nccc(Nc3ccc(F)cc3)n2)cc1` (as salt: hydrochloride) [Example 8, 4-[4-(4-Fluorophenylamino)pyrimidin-2-ylamino]-N-methyl-N-piperidin-4-yl-benzenesulfonamide], the melting point was 205 to 210 °C. Work on `NCCN(C1CCNCC1)S(=O)(=O)c1ccc(Nc2nccc(Nc3ccc(F)cc3)n2)cc1` (as salt: hydrochloride) [Example 44, N-(2-Aminoethyl)-4-[4-(4-fluorophenyl-amino)pyrimidin-2-ylamino]-N-piperidin-4-ylbenzene-sulfonamide hydrochloride] yielded a melting point of 270 °C. In the case of `CNCCN(C1CCN(C)CC1)S(=O)(=O)c1ccc(Nc2nccc(Nc3ccc(F)cc3)n2)cc1` (as salt: hydrochloride) [Example 46, 4-[4-(4-Fluorophenylamino)pyrimidin-2-yl-amino]-N-(2-methylaminoethyl)-N-(1-methylpiperidin-4-yl)benzenesulfonamide hydrochloride], the melting point was 220 °C. For `NCCCN(C1CCNCC1)S(=O)(=O)c1ccc(Nc2nccc(Nc3ccc(F)cc3)n2)cc1` (as salt: hydrochloride) [Example 92, N-(3-Aminopropyl)-4-({4-[(4-fluorophenyl)-amino]pyrimidin-2-yl}amino)-N-piperidin-4-ylbenzene-sulfonamide hydrochloride], the melting point was 245 to 247 °C. In the case of `Cc1cc(Nc2ccnc(Nc3ccc(S(=O)(=O)N(CCN)C4CCN(C)CC4)cc3)n2)ccc1F` (as salt: hydrochloride) [Example 95, N-(2-Aminoethyl)-4-({4-[(4-fluoro-3-methyl-phenyl)amino]pyrimidin-2-yl}amino)-N-(1-methylpiperidin-4-yl)benzenesulfonamide hydrochloride], the melting point was 220 °C. `O=S(=O)(c1ccc(Nc2nccc(Nc3ccc(F)cc3)n2)cc1)N(CCN1CCCC1)C1CNC1` (as salt: hydrochloride) [Example 96, N-Azetidin-3-yl-4-({4-[(4-fluorophenyl)-amino]pyrimidin-2-yl}amino)-N-(2-pyrrolidin-1-ylethyl)-benzenesulfonamide hydrochloride] showed a melting point of 215 °C. Compound `Cc1cc(Nc2ccnc(Nc3ccc(S(=O)(=O)N(CCN4CCCC4)C4CNC4)cc3)n2)ccc1F` (as salt: hydrochloride) [Example 97, N-Azetidin-3-yl-4-({4-[(4-fluoro-3-methyl-phenyl)amino]pyrimidin-2-yl}amino)-N-(2-pyrrolidin-1-ylethyl)benzenesulfonamide hydrochloride] has a melting point of 231 to 235 °C. `NCCN(C1CCN(CC(F)(F)F)CC1)S(=O)(=O)c1ccc(Nc2nccc(Nc3ccc(F)cc3)n2)cc1` (as salt: hydrochloride) [Example 100, N-(2-Aminoethyl)-4-({4-[(4-fluorophenyl)-amino]pyrimidin-2-yl}amino)-N-[1-(2,2,2-trifluoro-ethyl)piperidin-4-yl]benzenesulfonamide hydrochloride] gave a melting point of 240 to 245 °C. `CN1CCC(N(C[C@@H]2CCCN2)S(=O)(=O)c2ccc(Nc3nccc(Nc4ccc(F)cc4)n3)cc2)CC1` (as salt: hydrochloride) [Example 123, 4-({4-[(4-Fluorophenyl)amino]pyrimidin-2-yl}amino)-N-(1-methylpiperidin-4-yl)-N-[(2S)-pyrrolidin-2-ylmethyl]benzenesulfonamide] gave a melting point of 200 °C. `CN1CCC(N(C[C@H]2CCCN2)S(=O)(=O)c2ccc(Nc3nccc(Nc4ccc(F)cc4)n3)cc2)CC1` (as salt: hydrochloride) [Example 124, 4-({4-[(4-Fluorophenyl)amino]pyrimidin-2-yl}amino)-N-(1-methylpiperidin-4-yl)-N-[(2R)-pyrrolidin-2-ylmethyl]benzenesulfonamide] showed a melting point of 200 °C. Compound `CN1CCC(N(CC2CCCO2)S(=O)(=O)c2ccc(Nc3nccc(Nc4ccc(F)cc4)n3)cc2)CC1` (racemic) [Example 154] has a melting point of 189 °C. `CN1CCC(N(C)S(=O)(=O)c2ccc(Nc3nccc(Nc4ccc(F)cc4)n3)cc2)CC1` [Example 1, 4-[4-(4-Fluorophenylamino)pyrimidin-2-ylamino]-N-methyl-N-(1-methylpiperidin-4-yl)benzenesulfonamide] gave a melting point of 205 to 210 °C. Compound `O=C(CNS(=O)(=O)c1ccc(Nc2nccc(Nc3ccc(F)cc3)n2)cc1)NC1CCOCC1` [Example 2, 2-{4-[4-(4-Fluorophenylamino)pyrimidin-2-ylamino]benzenesulfonylamino}-N-(tetrahydropyran-4-yl)-acetamide] has a melting point of 253 to 254 °C. In the case of `CN(C1CCN(Cc2ccccc2)CC1)S(=O)(=O)c1ccc(Nc2nccc(Nc3ccc(F)cc3)n2)cc1` [Example 3, N-(1-Benzylpiperidin-4-yl)-4-[4-(4-fluoro-phenylamino)pyrimidin-2-ylamino]-N-methylbenzene-sulfonamide], the melting point was 186 to 190 °C. Compound `CN1CCC(N(C)S(=O)(=O)c2ccc(Nc3nccc(Nc4ccc(F)cc4)n3)cc2)C1` (stereo not shown) [Example 5, 4-[4-(4-Fluorophenylamino)pyrimidin-2-yl-amino]-N-methyl-N-(1-methylpyrrolidin-3-yl)benzene-sulfonamide] has a melting point of 177 to 181 °C. With `CN(C1CCS(=O)(=O)C1)S(=O)(=O)c1ccc(Nc2nccc(Nc3ccc(F)cc3)n2)cc1` (stereo not shown) [Example 6, N-(1,1-Dioxotetrahydro-1λ^6-thiophen-3-yl)-4-[4-(4-fluorophenylamino)pyrimidin-2-ylamino]-N-methyl-benzenesulfonamide] the melting point was 236 to 240 °C. In the case of `CN(C1CCN(Cc2ccccn2)CC1)S(=O)(=O)c1ccc(Nc2nccc(Nc3ccc(F)cc3)n2)cc1` [Example 9, 4-[4-(4-Fluorophenylamino)pyrimidin-2-ylamino]-N-methyl-N-(1-pyridin-2-ylmethylpiperidin-4-yl)benzenesulfonamide], the melting point was 202 to 204 °C. For `CCN1CCC(N(C)S(=O)(=O)c2ccc(Nc3nccc(Nc4ccc(F)cc4)n3)cc2)CC1` [Example 10, N-(1-Ethylpiperidin-4-yl)-4-[4-(4-fluoro-phenylamino)pyrimidin-2-ylamino]-N-methylbenzene-sulfonamide], the melting point was 162 to 163 °C. `CN1CCC(N(C)S(=O)(=O)c2ccc(Nc3nccc(Nc4ccc(F)c(F)c4)n3)cc2)CC1` [Example 11, 4-[4-(3,4-Difluorophenylamino)pyrimidin-2-ylamino]-N-methyl-N-(1-methylpiperidin-4-yl)benzene-sulfonamide] gave a melting point of 181 to 183 °C.
